Laboratory results: PMC5400099, “5-Hydroxyethyl-3-tetradecanoyltetramic acid represents a novel treatment for intravascular catheter infections due to Staphylococcus aureus” (Journal of Antimicrobial Chemotherapy, 2016)
Values after ≈ are worked out from the molar mass of the structure shown. Values joined by “and” are separate entries in the source; they are usually repeats but may differ in a detail not shown here. Equal entries are not always repeated. “Also recorded” adds a separate entry of the source.

How the values were obtained:
S. aureus strain SH1000 = assay: MIC by broth microdilution (CLSI), strain SH1000; type: cell-based; settings: Staphylococcus aureus; SH1000 (MSSA), Mueller–Hinton broth
Experimental: (§1) Community-acquired MRSA (CA-MRSA) strain USA300, its isogenic agr mutant,[17] the hospital-acquired MRSA (HA-MRSA) strain BH1CC,[18] the HA-MSSA strain BH48[19] and the MSSA strain SH1000[20] were cultured in Mueller–Hinton broth for susceptibility testing or in RPMI-1640 (Gibco) for biofilm formation. For the rat jugular vein catheter infection model, the S. aureus strain USA300 (LAC) lux[21] was used.
(§2) 5HE-C14-TMA and C14-TOA were synthesized as described previously[9] and C14-TTA as described in the Supplementary data available at JAC Online. Stock solutions of the compounds in DMSO at 10–50 mM were further diluted into tissue culture media or sodium chloride for the in vivo experiments. A DMSO solvent control was used in all in vitro experiments. The following antibiotics were used: vancomycin (Vancocin; Flynn Pharma Ltd., Republic of Ireland), daptomycin (Cubicin; Novartis, UK), gentamicin (Hospira, UK) and tigecycline (Tygacil; Pfizer Inc.). MICs were determined by broth microdilution in Mueller–Hinton broth, as recommended by the CLSI.

Haemolysis assay = type: cell-based; settings: red blood cells; human RBC; read-out: CC50 (haemolytic activity)
Experimental: Human blood containing EDTA (1.6 g/L) was centrifuged at 1000 g for 5 min. Red blood cells (RBC) were washed twice with PBS, diluted 2-fold and incubated with compounds or Triton X100 (positive control) at 0.5% (v/v). A570 was determined to quantify haemolysis. IC50s were derived from the corresponding dose–response curves.

S. aureus biofilms = assay: Biofilm susceptibility, resazurin-conversion assay on plasma-coated wells; type: cell-based, Staphylococcus aureus
Experimental: (§3) Biofilms were formed as previously described to mimic in vivo conditions that promote formation of coagulase-mediated biofilms.[16] Briefly, microtitre plates or glass-bottom culture dishes (MaTek Co., USA) were coated with either 20% (v/v) or 100% (v/v) human plasma, respectively, and inoculated with S. aureus at an OD600 ∼0.2. After 1 h, non-adherent bacteria were aspirated, replaced with fresh RPMI-1640 and biofilms allowed to form over 24 h at 37 °C. Pre-formed biofilms were treated for 24 h with either 5HE-C14-TMA, C14-TOA or C14-TTA or a positive control [ethanol at 40% (v/v)]. Biofilm viability was measured by (i) resazurin-conversion assay (in microtitre wells), or (ii) live/dead imaging (glass-bottom dishes). Conversion of the non-fluorescent redox dye, resazurin into the fluorescent resorufin was performed as described previously.[16] A 44 μM resazurin (Sigma-Aldrich, UK) solution in RPMI-1640 was added to an equal biofilm volume and incubated for 1 h at 37 °C. Fluorescence (excitation 544 nm, emission 590 nm) was quantified using a Perkin Elmer 2030 Multilabel Reader Victor^TM X3. Biofilms were stained with SYTO9 Green (at 13.36 μM) and propidium iodide (at 80 μM) (Molecular Probes®) for 1 h prior to washing. Four representative images at ×40 and ×100 were obtained per experimental group, per experiment using a Zeiss LSM 510 META confocal microscope. Each experiment was repeated at least three times. Fluorescence intensity was quantified using Image J1 software (http://imagej.net/Welcome).

[1] = test system: agr quorum sensing system; set-up: method as in PMID 24592914; settings: S. aureus; cited from earlier work
[2] = test system: MRSA (USA300 JE2 and BH1CC) and MSSA (SH1000 and BH48) strains; assay: MIC by broth microdilution, MRSA and MSSA strains; type: cell-based, Staphylococcus aureus; settings: MRSA and MSSA strains investigated
Experimental: as §1, §2

[3] = test system: S. aureus USA300lux biofilm; assay: Rat IVC (jugular vein catheter) biofilm infection model; type: in vivo; settings: CLS 512 mg/L, 40 μL daily for 5 days
Experimental: Rats (male, Sprague–Dawley) were pre-implanted with jugular vein polyurethane catheters (13.5 cm long, outside diameter 1.1 mm, inside diameter 0.6 mm) (Charles River, UK). Daily flushing was performed with 150 μL sodium chloride [0.1% (w/v)] following introduction of 40 μL heparin (100 IU), sodium chloride 0.1% (w/v) within the lumen. IVC-biofilm infection was developed as previously reported.[24–26] Catheters were inoculated with 40 μL S. aureus USA300lux suspension at 1 × 10^4 cfu/mL ‘locked’ within the catheter for 1 day. Intravenous vancomycin (50 mg/kg) was administered twice daily at 12 h intervals to prevent systemic spread of infection. CLS consisting of 5HE-C14-TMA (40 μL) at 512 mg/L in sodium chloride 0.1% (w/v) was administered daily for 5 days upon development of infection. After 5 days of treatment, catheters were removed and luminescence imaged using a Perkin Elmer IVIS Spectrum instrument (exposure, 20 s; binning: 4, f1). Bacteria were harvested from the catheters by treatment with TrypLE^TM Express (Gibco) and washing prior to determining viable counts.

S. aureus = settings: cited from earlier work
S. aureus USA300 LAC = assay: Bactericidal activity (time-kill, viable counts); type: cell-based, Staphylococcus aureus; settings: 8 × MIC
Experimental: S. aureus USA300 LAC was grown overnight in LB medium, diluted 250-fold and grown to an OD600 0.5. Cells were diluted to 1 × 10^6 per mL in challenge medium (LB plus 5HE-C14-TMA, C14-TOA or C14-TTA at 8 × MIC). Samples were removed and viable counts determined at 30 min intervals for the first hour followed by hourly sampling. The CLSI defines a compound as bactericidal if it reduces the starting inoculum colony count by at least 99.9% (3-logs).

[4] = test system: S. aureus USA300 and SH1000 biofilms; assay: Biofilm viability by live/dead imaging; type: cell-based, Staphylococcus aureus; settings: 128 mg/L, 24 h, both strains (USA300 MRSA and SH1000 MSSA), live/dead staining
Experimental: as §3, with “Four representative images at ×40 and ×100 were obtained per experimental group, per experiment using a Zeiss LSM 510 META confocal microscope. Each experiment was repeated at least three times.” left out

[5] = test system: IL-8 and TNF-α release in human blood; type: cell-based
Experimental: EDTA-treated human blood was incubated in microtitre wells containing either S. aureus USA300 biofilm, 5HE-C14-TMA (at 256 mg/L) only or biofilm with 5HE-C14-TMA (at 256 mg/L) and incubated for 2 h at 37 °C. Plasma samples were collected by centrifugation (1000 g) and assayed for human cytokines using a Bio-Plex 200 (Bio-Rad). A standard curve was employed to maximize sensitivity for samples containing low cytokine levels. At least three different donor blood samples (with three replicates for each) were used.

[6] = 256 mg/L for 2 h, sub-bactericidal dose

CCCCCCCCCCCCCC(=O)C1=C(O)N[C@@H](CCO)C1=O [5HE-C14-TMA, 5-hydroxyethyl-3-tetradecanoyltetramic acid]
MIC (S. aureus strain SH1000): 6.25 µM and 2 µg/mL | CC50 (Haemolysis assay): 246 µM and 87 µg/mL | Reduction of biofilm viability (S. aureus biofilms; 1024 mg/L, 24 h treatment, depending on the strain, resazurin): 7–20 fold | Concentration giving complete killing / eradication of S. aureus biofilms (S. aureus biofilms; MRSA and MSSA biofilms): 512 to 1024 mg/L | IC50 [1]: 14 µM | MIC [2]: 2 µg/mL (≈ 5.66 µM) | MIC ([2]; Staphylococcus aureus): 2 to 4 µg/mL (≈ 5.66 to 11.3 µM) | Catheter biofilm after CLS treatment [3]: effectively eradicated; also recorded: highly effective in the eradication of MRSA biofilm | Increase in growth inhibitory activity relative to 5HE-C10-TMA (S. aureus; planktonic S. aureus): 8 fold | MIC (S. aureus; towards S. aureus): 12.5 µM (≈ 4.42 µg/mL) | Reduction of viability (S. aureus USA300 LAC; USA300, over 30 min): 3 logs | Bactericidal activity (CLSI: at least 3-log reduction) (S. aureus USA300 LAC; planktonic USA300): bactericidal | Biofilm killing [4]: > 50% | IL-8 level in blood exposed to USA300 biofilm with compound [5, 6]: substantial reductions | TNF-α level in blood exposed to USA300 biofilm with compound [5, 6]: substantial reductions | Cytokine levels in whole human blood, agent only ([5]; 256 mg/L, 2 h, no biofilm): no increase in cytokine levels | IL-8 and TNF-α levels in response to USA300 agr mutant biofilm with compound ([5]; same dose (256 mg/L), agr mutant biofilm): no further effect
